Results published in ChEMBL document CHEMBL1132807, “Synthesis of a heterocyclic aza-enediyne and its DNA-cleavage properties” (Bioorg Med Chem Lett, 2000).

Test: Concentration required for cleaving the supercoiled DNA at pH 8
Assay type: functional

C[n+]1c(C#Cc2ccccc2)n(CC#Cc2ccccc2)c2ccccc21
Concentration: 100 µM
